Experimental data reported in PubChem BioAssay AID1963958 (Molecular Pharmacology Branch, DTP, NCI, 2024).

Test system: MDA-MB-231 multicell spheroids, viability
Test: Anticancer human tumor MDA-MB-231 cell line growth inhibition [PI3K];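 also: spheroids exposed to agents for seven days before reading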;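 as to viability, T/C: percent of vehicle control luminescence with DMSO treated spheroids as 100%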
Conditions: for IC50: curve of first compound; for viability, T/C: stronger effect = lower value
Summary of the method: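 Three cell types, namely tumor cells, endothelial cells and mesenchymal stem cells, formed each spheroid. Combinations with four PI3K inhibitors were screened at clinically achievable concentrations decreasing by half-log, and spheroid viability was recorded.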

[1] = second compound 0.0316 µM, first compound 0.0316 µM
[2] = second compound 0.0316 µM, first compound 0.1 µM
[3] = second compound 0.0316 µM, first compound 0.316 µM
[4] = second compound 0.0316 µM, first compound 1 µM
[5] = second compound 0.0316 µM, first compound 3.16 µM
[6] = second compound 0.0316 µM, first compound 10 µM
[7] = second compound 0.1 µM, first compound 0.0316 µM
[8] = second compound 0.1 µM, first compound 0.1 µM
[9] = second compound 0.1 µM, first compound 0.316 µM
[10] = second compound 0.1 µM, first compound 1 µM
[11] = second compound 0.1 µM, first compound 3.16 µM
[12] = second compound 0.1 µM, first compound 10 µM
[13] = second compound 0.316 µM, first compound 0.0316 µM
[14] = second compound 0.316 µM, first compound 0.1 µM
[15] = second compound 0.316 µM, first compound 0.316 µM
[16] = second compound 0.316 µM, first compound 1 µM
[17] = second compound 0.316 µM, first compound 3.16 µM
[18] = second compound 0.316 µM, first compound 10 µM
[19] = second compound 1 µM, first compound 0.0316 µM
[20] = second compound 1 µM, first compound 0.1 µM
[21] = second compound 1 µM, first compound 0.316 µM
[22] = second compound 1 µM, first compound 1 µM
[23] = second compound 1 µM, first compound 3.16 µM
[24] = second compound 1 µM, first compound 10 µM
[25] = second compound 3.16 µM, first compound 0.0316 µM
[26] = second compound 3.16 µM, first compound 0.1 µM
[27] = second compound 3.16 µM, first compound 0.316 µM
[28] = second compound 3.16 µM, first compound 1 µM
[29] = second compound 3.16 µM, first compound 3.16 µM
[30] = second compound 3.16 µM, first compound 10 µM
[31] = second compound 10 µM, first compound 0.0316 µM
[32] = second compound 10 µM, first compound 0.1 µM
[33] = second compound 10 µM, first compound 0.316 µM
[34] = second compound 10 µM, first compound 1 µM
[35] = second compound 10 µM, first compound 3.16 µM
[36] = second compound 10 µM, first compound 10 µM

## C=CC(=O)N1CCN(c2nc(=O)n(-c3c(C)ccnc3C(C)C)c3nc(-c4c(O)cccc4F)c(F)cc23)C(C)C1 (stereo not given) + Cc1nc(NC(=O)N2CCCC2C(N)=O)sc1-c1ccnc(C(C)(C)C(F)(F)F)c1
Second compound 0.0316 µM
  IC50: > 10 µM
Second compound 0.1 µM
  IC50: > 10 µM
Second compound 0.316 µM
  IC50: > 10 µM
Second compound 1 µM
  IC50: > 10 µM
Second compound 3.16 µM
  IC50: 6.06 µM
Second compound 10 µM
  IC50: 3.95 µM
[1]
  viability, T/C: 97.5%
[2]
  viability, T/C: 98.3%
[3]
  viability, T/C: 96.4%
[4]
  viability, T/C: 103%
[5]
  viability, T/C: 120%
[6]
  viability, T/C: 102%
[7]
  viability, T/C: 86.5%
[8]
  viability, T/C: 85.4%
[9]
  viability, T/C: 93.2%
[10]
  viability, T/C: 108%
[11]
  viability, T/C: 109%
[12]
  viability, T/C: 88.4%
[13]
  viability, T/C: 74.8%
[14]
  viability, T/C: 79.1%
[15]
  viability, T/C: 79%
[16]
  viability, T/C: 82.8%
[17]
  viability, T/C: 87.9%
[18]
  viability, T/C: 66.9%
[19]
  viability, T/C: 63%
[20]
  viability, T/C: 66.5%
[21]
  viability, T/C: 68.2%
[22]
  viability, T/C: 71.1%
[23]
  viability, T/C: 62.1%
[24]
  viability, T/C: 48.5%
[25]
  viability, T/C: 66.3%
[26]
  viability, T/C: 66.8%
[27]
  viability, T/C: 68%
[28]
  viability, T/C: 65.4%
[29]
  viability, T/C: 60.1%
[30]
  viability, T/C: 42.1%
[31]
  viability, T/C: 67.6%
[32]
  viability, T/C: 60.3%
[33]
  viability, T/C: 60%
[34]
  viability, T/C: 58.5%
[35]
  viability, T/C: 54.7%
[36]
  viability, T/C: 36.7%

## CC(C)NCC(C(=O)N1CCN(c2ncnc3c2C(C)CC3O)CC1)c1ccc(Cl)cc1 (stereo not given) + Cc1nc(NC(=O)N2CCCC2C(N)=O)sc1-c1ccnc(C(C)(C)C(F)(F)F)c1
Second compound 0.0316 µM
  IC50: 7.63 µM
Second compound 0.1 µM
  IC50: 6.69 µM
Second compound 0.316 µM
  IC50: 4.73 µM
Second compound 1 µM
  IC50: 4.4 µM
Second compound 3.16 µM
  IC50: 4.09 µM
Second compound 10 µM
  IC50: 3.7 µM
[1]
  viability, T/C: 95.8%
[2]
  viability, T/C: 95.9%
[3]
  viability, T/C: 82.7%
[4]
  viability, T/C: 83.5%
[5]
  viability, T/C: 66.9%
[6]
  viability, T/C: 44.2%
[7]
  viability, T/C: 84.8%
[8]
  viability, T/C: 79.9%
[9]
  viability, T/C: 71.4%
[10]
  viability, T/C: 73.5%
[11]
  viability, T/C: 64%
[12]
  viability, T/C: 42.5%
[13]
  viability, T/C: 72.6%
[14]
  viability, T/C: 77.8%
[15]
  viability, T/C: 73.4%
[16]
  viability, T/C: 63.4%
[17]
  viability, T/C: 55%
[18]
  viability, T/C: 42.6%
[19]
  viability, T/C: 70.7%
[20]
  viability, T/C: 66.6%
[21]
  viability, T/C: 63.7%
[22]
  viability, T/C: 60.4%
[23]
  viability, T/C: 55.6%
[24]
  viability, T/C: 40.4%
[25]
  viability, T/C: 73.7%
[26]
  viability, T/C: 66.4%
[27]
  viability, T/C: 64.3%
[28]
  viability, T/C: 60.6%
[29]
  viability, T/C: 54.3%
[30]
  viability, T/C: 40.4%
[31]
  viability, T/C: 68.7%
[32]
  viability, T/C: 65.5%
[33]
  viability, T/C: 61.3%
[34]
  viability, T/C: 59.9%
[35]
  viability, T/C: 53.4%
[36]
  viability, T/C: 37.8%

## CCN1CCN(Cc2ccc(Nc3ncc(F)c(-c4cc(F)c5nc(C)n(C(C)C)c5c4)n3)nc2)CC1 + Cc1nc(NC(=O)N2CCCC2C(N)=O)sc1-c1ccnc(C(C)(C)C(F)(F)F)c1
Second compound 0.0316 µM
  IC50: 0.261 µM
Second compound 0.1 µM
  IC50: 0.0893 µM
Second compound 0.316 µM
  IC50: 0.0309 µM
Second compound 1 µM
  IC50: 0.0202 µM
Second compound 3.16 µM
  IC50: 0.0236 µM
Second compound 10 µM
  IC50: 0.0137 µM
Second compound 0.0316 µM, first compound 0.00316 µM
  viability, T/C: 90.9%
Second compound 0.0316 µM, first compound 0.01 µM
  viability, T/C: 75.5%
[1]
  viability, T/C: 66.3%
[2]
  viability, T/C: 54.2%
[3]
  viability, T/C: 45.3%
[4]
  viability, T/C: 49.6%
Second compound 0.1 µM, first compound 0.00316 µM
  viability, T/C: 82.4%
Second compound 0.1 µM, first compound 0.01 µM
  viability, T/C: 74.1%
[7]
  viability, T/C: 59.8%
[8]
  viability, T/C: 50.5%
[9]
  viability, T/C: 40.8%
[10]
  viability, T/C: 46.4%
Second compound 0.316 µM, first compound 0.00316 µM
  viability, T/C: 72.3%
Second compound 0.316 µM, first compound 0.01 µM
  viability, T/C: 66.7%
[13]
  viability, T/C: 50.3%
[14]
  viability, T/C: 40.9%
[15]
  viability, T/C: 41.3%
[16]
  viability, T/C: 47.9%
Second compound 1 µM, first compound 0.00316 µM
  viability, T/C: 65.8%
Second compound 1 µM, first compound 0.01 µM
  viability, T/C: 57.3%
[19]
  viability, T/C: 45.8%
[20]
  viability, T/C: 40.2%
[21]
  viability, T/C: 40%
[22]
  viability, T/C: 47.7%
Second compound 3.16 µM, first compound 0.00316 µM
  viability, T/C: 66.2%
Second compound 3.16 µM, first compound 0.01 µM
  viability, T/C: 58.6%
[25]
  viability, T/C: 47.7%
[26]
  viability, T/C: 41.6%
[27]
  viability, T/C: 37.6%
[28]
  viability, T/C: 48.4%
Second compound 10 µM, first compound 0.00316 µM
  viability, T/C: 66.2%
Second compound 10 µM, first compound 0.01 µM
  viability, T/C: 53.2%
[31]
  viability, T/C: 44.4%
[32]
  viability, T/C: 42%
[33]
  viability, T/C: 39.4%
[34]
  viability, T/C: 47.5%

## Cn1ncc(Cl)c1-c1cc(C(=O)NC(CN)Cc2cccc(F)c2)sc1Cl (stereo not given) + Cc1nc(NC(=O)N2CCCC2C(N)=O)sc1-c1ccnc(C(C)(C)C(F)(F)F)c1
Second compound 0.0316 µM
  IC50: 3.29 µM
Second compound 0.1 µM
  IC50: 2.71 µM
Second compound 0.316 µM
  IC50: 1.9 µM
Second compound 1 µM
  IC50: 1.9 µM
Second compound 3.16 µM
  IC50: 1.8 µM
Second compound 10 µM
  IC50: 2.48 µM
[1]
  viability, T/C: 104%
[2]
  viability, T/C: 89.2%
[3]
  viability, T/C: 82.9%
[4]
  viability, T/C: 71.8%
[5]
  viability, T/C: 49.9%
[6]
  viability, T/C: 28.8%
[7]
  viability, T/C: 86.6%
[8]
  viability, T/C: 83.3%
[9]
  viability, T/C: 81%
[10]
  viability, T/C: 66.2%
[11]
  viability, T/C: 47.8%
[12]
  viability, T/C: 24.4%
[13]
  viability, T/C: 76%
[14]
  viability, T/C: 80.8%
[15]
  viability, T/C: 70.5%
[16]
  viability, T/C: 64.8%
[17]
  viability, T/C: 38.8%
[18]
  viability, T/C: 25.1%
[19]
  viability, T/C: 67.7%
[20]
  viability, T/C: 72.3%
[21]
  viability, T/C: 64.3%
[22]
  viability, T/C: 57%
[23]
  viability, T/C: 44.4%
[24]
  viability, T/C: 24.5%
[25]
  viability, T/C: 72.1%
[26]
  viability, T/C: 66.6%
[27]
  viability, T/C: 66.7%
[28]
  viability, T/C: 57.6%
[29]
  viability, T/C: 42.7%
[30]
  viability, T/C: 26.6%
[31]
  viability, T/C: 69%
[32]
  viability, T/C: 62%
[33]
  viability, T/C: 57.9%
[34]
  viability, T/C: 60.4%
[35]
  viability, T/C: 48%
[36]
  viability, T/C: 23.5%

## Cn1nccc1Nc1nccc(-c2ccn(C(CO)c3ccc(Cl)c(F)c3)c(=O)c2)n1 (stereo not given) + Cc1nc(NC(=O)N2CCCC2C(N)=O)sc1-c1ccnc(C(C)(C)C(F)(F)F)c1
Second compound 0.0316 µM
  IC50: 0.61 µM
Second compound 0.1 µM
  IC50: 0.423 µM
Second compound 0.316 µM
  IC50: 0.151 µM
Second compound 1 µM
  IC50: 0.0881 µM
Second compound 3.16 µM
  IC50: 0.0576 µM
Second compound 10 µM
  IC50: < 0.0316 µM
[1]
  viability, T/C: 75.6%
[2]
  viability, T/C: 65%
[3]
  viability, T/C: 56.1%
[4]
  viability, T/C: 45.3%
[5]
  viability, T/C: 36.5%
[6]
  viability, T/C: 26%
[7]
  viability, T/C: 66.2%
[8]
  viability, T/C: 58.1%
[9]
  viability, T/C: 54%
[10]
  viability, T/C: 41.6%
[11]
  viability, T/C: 35.7%
[12]
  viability, T/C: 22.4%
[13]
  viability, T/C: 62.2%
[14]
  viability, T/C: 49.5%
[15]
  viability, T/C: 46.7%
[16]
  viability, T/C: 37.6%
[17]
  viability, T/C: 29.3%
[18]
  viability, T/C: 21.9%
[19]
  viability, T/C: 56.6%
[20]
  viability, T/C: 47.2%
[21]
  viability, T/C: 43.6%
[22]
  viability, T/C: 34.6%
[23]
  viability, T/C: 25.1%
[24]
  viability, T/C: 19.7%
[25]
  viability, T/C: 53.8%
[26]
  viability, T/C: 47.2%
[27]
  viability, T/C: 37.8%
[28]
  viability, T/C: 34.3%
[29]
  viability, T/C: 24.2%
[30]
  viability, T/C: 16.7%
[31]
  viability, T/C: 43.2%
[32]
  viability, T/C: 37.1%
[33]
  viability, T/C: 33%
[34]
  viability, T/C: 29.6%
[35]
  viability, T/C: 21.9%
[36]
  viability, T/C: 10.6%
